Measurements published in patent US20230365541A1, “INHIBITOR OF ENHANCER OF ZESTE HOMOLOGUE 2, AND USE THEREOF” (HAISCO PHARMACEUTICALS PTE. LTD., priority 2020, published 2023).

Biological target: EZH2 (Homo sapiens (Human), UniProt Q15910)
Assay: Test method for EZH2 enzyme activity
Assay type: biochemical
Details: H3K27(21-44) and [3H]-SAM
Protocol: The compounds were dissolved in DMSO, formulated into 10 mM solutions and serially diluted with DMSO to obtain 100-fold the final concentration. 200 nL of the solutions of the compounds was transferred to a 384-well plate (Perkin Elmer, Cat. No. 6007299) by using Echo550. EZH2 (BPS, Cat. No. 51004) was diluted with 1×assay buffer (50 mM Tris-HCl 9.0, 0.01% Tween-20, 1 mM DTT) to 2-fold the final concentration (EZH2: 3 nM). A mixed solution of H3K27(21-44) and [3H]-SAM (PerkinElmer, Lot. No. 2146246) (H3K27(21-44): 200 nM, [3H]-SAM: 100 nM) was formulated. The EZH2 diluted solution was taken and added to the 384-well plate at 10 μL/well (10 μL of 1×assay buffer was added in the control group). The plate was sealed and then incubated at room temperature for 15 minutes. 10 μL of the mixed solution of H3K27 (21-44) and [3H]-SAM was added to each well. The plate was sealed and then incubated at room temperature for 60 minutes. 50 μM of SAM (Sigma, Cat. No. A7007) was formulated at low temperature and added to the 384-well plate at 10 μL/well. The sample was taken at 25 μL/well, transferred to a flashplate and incubated at room temperature for at least 1 hour. The flashplate was washed 3 times with a plate washing liquid (dH2O+0.1% Tween-20) and read by using Microbeta. The inhibition rate was calculated in Excel according to: inhibition rate (%)=(maximum valuepositive control−detection signal value)/(maximum valuepositive control−minimum valuenegative control)*100, and IC50 values were fitted by using XL-Fit.

EZH2, sequence (Q15910 other isoform, or with tags, fused parts or gaps isoform Q15910-2): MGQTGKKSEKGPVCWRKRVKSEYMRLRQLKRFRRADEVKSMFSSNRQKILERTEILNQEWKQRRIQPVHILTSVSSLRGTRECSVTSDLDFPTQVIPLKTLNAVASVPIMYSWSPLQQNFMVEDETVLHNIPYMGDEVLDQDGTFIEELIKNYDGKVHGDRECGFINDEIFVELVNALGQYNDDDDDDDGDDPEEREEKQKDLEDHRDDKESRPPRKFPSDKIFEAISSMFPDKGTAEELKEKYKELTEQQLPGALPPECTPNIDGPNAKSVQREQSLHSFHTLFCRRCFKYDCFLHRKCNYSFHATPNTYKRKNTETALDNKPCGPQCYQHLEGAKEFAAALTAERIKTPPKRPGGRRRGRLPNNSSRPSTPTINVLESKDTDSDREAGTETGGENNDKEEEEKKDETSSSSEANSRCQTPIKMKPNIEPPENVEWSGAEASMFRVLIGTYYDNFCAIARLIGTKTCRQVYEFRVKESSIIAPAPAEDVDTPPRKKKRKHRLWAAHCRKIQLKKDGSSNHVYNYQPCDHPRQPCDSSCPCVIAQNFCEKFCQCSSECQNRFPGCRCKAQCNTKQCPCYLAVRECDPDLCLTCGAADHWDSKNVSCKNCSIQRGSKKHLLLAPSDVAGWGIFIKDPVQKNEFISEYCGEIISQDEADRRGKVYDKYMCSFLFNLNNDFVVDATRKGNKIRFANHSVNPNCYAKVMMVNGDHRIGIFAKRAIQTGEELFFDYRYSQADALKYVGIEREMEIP
EZH2, sequence (O75530 2-441 partner): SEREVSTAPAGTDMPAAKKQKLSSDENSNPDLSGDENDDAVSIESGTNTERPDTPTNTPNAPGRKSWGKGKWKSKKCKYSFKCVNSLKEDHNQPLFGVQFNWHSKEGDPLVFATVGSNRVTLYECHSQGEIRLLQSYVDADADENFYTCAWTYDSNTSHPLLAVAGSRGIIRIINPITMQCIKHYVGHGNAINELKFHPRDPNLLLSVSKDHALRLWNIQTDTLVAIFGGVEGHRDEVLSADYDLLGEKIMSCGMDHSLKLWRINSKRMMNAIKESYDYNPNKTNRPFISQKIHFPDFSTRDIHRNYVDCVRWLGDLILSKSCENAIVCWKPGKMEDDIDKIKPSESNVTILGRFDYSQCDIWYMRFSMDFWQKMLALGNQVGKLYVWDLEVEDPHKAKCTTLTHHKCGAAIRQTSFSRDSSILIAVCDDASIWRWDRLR
EZH2, sequence (Q15022 2-739 partner): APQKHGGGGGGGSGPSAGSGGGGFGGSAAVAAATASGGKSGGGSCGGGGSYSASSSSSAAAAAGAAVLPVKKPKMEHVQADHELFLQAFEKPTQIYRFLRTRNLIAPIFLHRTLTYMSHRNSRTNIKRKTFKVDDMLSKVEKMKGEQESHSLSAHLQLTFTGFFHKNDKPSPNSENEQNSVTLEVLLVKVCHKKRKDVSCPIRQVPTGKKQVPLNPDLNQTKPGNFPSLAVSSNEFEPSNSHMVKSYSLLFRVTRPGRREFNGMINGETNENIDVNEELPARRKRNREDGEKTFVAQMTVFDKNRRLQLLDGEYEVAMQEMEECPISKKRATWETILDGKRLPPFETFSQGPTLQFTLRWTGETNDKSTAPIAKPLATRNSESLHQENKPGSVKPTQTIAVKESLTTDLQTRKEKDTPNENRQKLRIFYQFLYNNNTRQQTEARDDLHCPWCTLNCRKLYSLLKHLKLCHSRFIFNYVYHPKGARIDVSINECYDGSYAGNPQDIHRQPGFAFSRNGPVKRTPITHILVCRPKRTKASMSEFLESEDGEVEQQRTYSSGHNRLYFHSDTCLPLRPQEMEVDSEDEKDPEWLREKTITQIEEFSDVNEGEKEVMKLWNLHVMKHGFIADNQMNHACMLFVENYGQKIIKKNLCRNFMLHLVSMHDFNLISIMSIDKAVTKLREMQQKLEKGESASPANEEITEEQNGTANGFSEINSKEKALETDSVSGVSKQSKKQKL
EZH2, sequence (Q09028 2-425 partner): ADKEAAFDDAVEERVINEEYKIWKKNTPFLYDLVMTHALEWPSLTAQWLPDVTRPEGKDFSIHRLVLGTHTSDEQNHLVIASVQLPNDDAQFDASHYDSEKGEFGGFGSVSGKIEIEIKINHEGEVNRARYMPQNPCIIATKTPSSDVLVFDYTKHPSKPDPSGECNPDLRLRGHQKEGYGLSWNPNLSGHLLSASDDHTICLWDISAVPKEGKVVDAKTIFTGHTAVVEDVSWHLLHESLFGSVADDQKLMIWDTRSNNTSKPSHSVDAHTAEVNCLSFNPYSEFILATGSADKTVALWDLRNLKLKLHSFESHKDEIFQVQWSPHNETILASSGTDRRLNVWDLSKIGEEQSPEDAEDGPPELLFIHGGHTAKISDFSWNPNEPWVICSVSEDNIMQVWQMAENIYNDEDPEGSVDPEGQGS
EZH2, sequence (Q6ZN18 whole entry partner): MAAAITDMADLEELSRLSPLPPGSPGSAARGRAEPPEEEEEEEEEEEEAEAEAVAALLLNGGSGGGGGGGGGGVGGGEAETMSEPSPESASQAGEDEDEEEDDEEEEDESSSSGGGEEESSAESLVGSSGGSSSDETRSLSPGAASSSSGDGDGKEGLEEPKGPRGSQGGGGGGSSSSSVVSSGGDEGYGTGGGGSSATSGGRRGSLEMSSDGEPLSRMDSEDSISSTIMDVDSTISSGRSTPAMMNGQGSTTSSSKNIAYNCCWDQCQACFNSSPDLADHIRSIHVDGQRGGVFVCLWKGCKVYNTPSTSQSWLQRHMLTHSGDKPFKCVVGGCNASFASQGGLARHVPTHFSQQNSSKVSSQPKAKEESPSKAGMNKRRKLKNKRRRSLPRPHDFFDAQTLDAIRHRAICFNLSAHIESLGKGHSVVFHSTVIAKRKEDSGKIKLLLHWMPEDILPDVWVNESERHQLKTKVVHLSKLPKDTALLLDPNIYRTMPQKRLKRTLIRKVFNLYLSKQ

| SMILES | IC50 [nM] |
| --- | --- |
| CSc1cc(C)[nH]c(=O)c1CNC(=O)c1cc(Cl)c2c(c1C)OC(C)([C@H]1CC[C@@H](N3CC4CN(C)CC4C3)CC1)O2 (single isomer, unassigned) [Compound 42, isomer 1, 7-chloro-2,4-dimethyl-N-((6-methyl-4-(methylthio)-2-oxo-1,2-dihydropyridin-3-yl)methyl)-2-(4-(5-methylhexahydropyrrolo[3,4-c]pyrrol-2(1H)-yl)cyclohexyl)benzo[d][1,3]dioxole-5-carboxamide] | 0.34 |
| CSc1cc(C)[nH]c(=O)c1CNC(=O)c1cc(Cl)c2c(c1C)OC(C)([C@H]1CC[C@@H](N3CC(N4CCCC4)C3)CC1)O2 (single isomer, unassigned) [Compound 43, isomer 2, 7-chloro-2,4-dimethyl-N-((6-methyl-4-(methylthio)-2-oxo-1,2-dihydropyridin-3-yl)methyl)-2-(4-(3-(pyrrolidin-1-yl)azetidin-1-yl)cyclohexyl)benzo[d][1,3]dioxole-5-carboxamide] | 0.42 |
| CSc1cc(C)[nH]c(=O)c1CNC(=O)c1cc(Cl)c2c(c1C)OC(C)(C1CCC(N[C@H]3C[C@H](O)C3)CC1)O2 (single isomer, unassigned) [Compound 45, isomer 1, 7-chloro-2-(4-((trans-3-hydroxycyclobutyl)amino)cyclohexyl)-2,4-dimethyl-N-((6-methyl-4-(methylthio)-2-oxo-1,2-dihydropyridin-3-yl)methyl)benzo[d][1,3]dioxole-5-carboxamide] | 0.28 |
| CSc1cc(C)[nH]c(=O)c1CNC(=O)c1cc(Cl)c2c(c1C)OC(C)([C@H]1CC[C@@H](N3CC[Si](C)(C)CC3)CC1)O2 (single isomer, unassigned) [Compound 49, isomer 1, 7-chloro-2-(4-(4,4-dimethyl-1,4-azasilinan-1-yl)cyclohexyl)-2,4-dimethyl-N-((6-methyl-4-(methylthio)-2-oxo-1,2-dihydropyridin-3-yl)methyl)benzo[d][1,3]dioxole-5-carboxamide] | 0.51 |
| [2H]C([2H])(NC(=O)c1cc(Cl)c2c(c1C)OC(C)([C@H]1CC[C@@H](CN3CCOCC3)CC1)O2)c1c(SC)cc(C)[nH]c1=O (single isomer, unassigned) [Compound 57, isomer 1, 7-chloro-2,4-dimethyl-N-((6-methyl-4-(methylthio)-2-oxo-1,2-dihydropyridin-3-yl)methyl-d2)-2-(4-(morpholinomethyl)cyclohexyl)benzo[d][1,3]dioxole-5-carboxamide] | 0.46 |

Next, values leading:

| IC50 [nM] | SMILES |
| --- | --- |
| 0.23 | CSc1cc(C)[nH]c(=O)c1CNC(=O)c1cc(Cl)c2c(c1C)OC(C)([C@H]1CC[C@@H](N3CC4CN(C)CC4C3)CC1)O2 (single isomer, unassigned) [Compound 42, isomer 2, 7-chloro-2,4-dimethyl-N-((6-methyl-4-(methylthio)-2-oxo-1,2-dihydropyridin-3-yl)methyl)-2-(4-(5-methylhexahydropyrrolo[3,4-c]pyrrol-2(1H)-yl)cyclohexyl)benzo[d][1,3]dioxole-5-carboxamide] |
| 0.35 | CSc1cc(C)[nH]c(=O)c1CNC(=O)c1cc(Cl)c2c(c1C)OC(C)(C1CCC(N[C@H]3C[C@H](O)C3)CC1)O2 (single isomer, unassigned) [Compound 45, isomer 2, 7-chloro-2-(4-((trans-3-hydroxycyclobutyl)amino)cyclohexyl)-2,4-dimethyl-N-((6-methyl-4-(methylthio)-2-oxo-1,2-dihydropyridin-3-yl)methyl)benzo[d][1,3]dioxole-5-carboxamide] |
| 0.49 | [2H]C([2H])(NC(=O)c1cc(Cl)c2c(c1C)OC(C)([C@H]1CC[C@@H](CN3CCOCC3)CC1)O2)c1c(SC)cc(C)[nH]c1=O (single isomer, unassigned) [Compound 57, isomer 2, 7-chloro-2,4-dimethyl-N-((6-methyl-4-(methylthio)-2-oxo-1,2-dihydropyridin-3-yl)methyl-d2)-2-(4-(morpholinomethyl)cyclohexyl)benzo[d][1,3]dioxole-5-carboxamide] |
